Experimental data from US20230083012A1, “DIHYDROPYRIMIDINE DERIVATIVES AND USES THEREOF IN THE TREATMENT OF HBV INFECTION OR OF HBV-INDUCED DISEASES” (priority 2019, published 2023).
Like-named read-outs stand apart in the source and are kept apart here.

Tests used:
HBV = assay: Anti-HBV activity in HepG2.2.15 cells (HBV DNA in culture medium by qPCR); type: cell-based; conditions: HepG2.2.15 cells, 6 days treatment, HBV DNA in culture medium quantified by real-time PCR, read-out: EC50
Outline: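 Secreted HBV DNA was measured by real-time PCR after 6-day compound exposure of HepG2.2.15 cells (2% FBS, 37 °C, re-dosed after 3 days), giving EC50 from 8-point 1:3 series starting at 10 or 1 uM. Cytotoxicity (CC50) run separately at lower cell density, top 100 uM.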

[1] = Cytotoxicity determination in HepG2.2.15 cells (CCK-8 cell viability); type: cell-based; conditions: human, 6 days treatment, CCK-8 assay, highest concentration 100 uM
Outline: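 Viability measured by CCK-8 absorbance (450 nm, 630 nm reference, 2.5 h at 37° C) after six days of treatment, medium and compound renewed on day 3. Top concentration 100 uM, eight threefold dilutions in triplicate; cells plated at 5,000/well in 2% FBS medium; CC50 derived.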

[2] = Hepatitis B virus, HepG2.2.15, 144 h

| SMILES | EC50 (HBV; [2]) | CC50 at 6 days [1] | EC50 (HBV) |
| --- | --- | --- | --- |
| CCOC(=O)C1=C(CN2CC(F)(F)[C@H]3[C@@H]2CCN3CC[C@H]2C[C@H](C(=O)O)C2)NC(c2nccs2)=N[C@H]1c1cccc(F)c1C (single isomer, unassigned) [Compound 129B] | 0.0029 µM | 12.4 µM | – |
| CCOC(=O)C1=C(CN2CC(F)(F)[C@H]3[C@@H]2CCN3C[C@@H]2CC[C@@H]2C(=O)O)NC(c2nccs2)=N[C@H]1c1cccc(F)c1C (single isomer, unassigned) [Compound 130A] | 0.0076 µM | 22.4 µM | – |
| CCOC(=O)C1=C(CN2CC(F)(F)[C@H]3[C@@H]2CCN3C[C@H]2CC[C@H]2C(=O)O)NC(c2nccs2)=N[C@H]1c1cccc(F)c1C (single isomer, unassigned) [Compound 130B] | < 0.0005 µM | 18.2 µM | – |
| COC(=O)C1=C(CN2CC(F)(F)[C@H]3[C@@H]2CCN3C[C@@H](C)C(=O)O)NC(c2nccs2)=N[C@H]1c1cccc(F)c1C (single isomer, unassigned) [Compound 131A, 3-((cis)-6,6-Difluoro-4-(((S*)-6-(3-fluoro-2-methylphenyl)-5-(methoxycarbonyl)-2-(thiazol-2-yl)-3,6-dihydropyrimidin-4-yl)methyl)hexahydropyrrolo[3,2-b]pyrrol-1(2H)-yl)-2-methylpropanoic acid] | – | 44.6 µM | 0.0005 µM |
| COC(=O)C1=C(CN2CC(F)(F)[C@H]3[C@@H]2CCN3C[C@@H](C)C(=O)O)NC(c2nccs2)=N[C@H]1c1cccc(F)c1Cl (single isomer, unassigned) [Compound 132A, 3-((cis)-4-((6-(2-Chloro-3-fluorophenyl)-5-(methoxycarbonyl)-2-(thiazol-2-yl)-3,6-dihydropyrimidin-4-yl)methyl)-6,6-difluorohexahydropyrrolo[3,2-b]pyrrol-1(2H)-yl)-2-methylpropanoic acid] | < 0.0005 µM | 40.7 µM | – |
| COC(=O)C1=C(CN2CC(F)(F)[C@H]3[C@@H]2CCN3C[C@H](C)C(=O)O)NC(c2nccs2)=N[C@H]1c1cccc(F)c1Cl (single isomer, unassigned) [Compound 132B, 3-((cis)-4-((6-(2-Chloro-3-fluorophenyl)-5-(methoxycarbonyl)-2-(thiazol-2-yl)-3,6-dihydropyrimidin-4-yl)methyl)-6,6-difluorohexahydropyrrolo[3,2-b]pyrrol-1(2H)-yl)-2-methylpropanoic acid] | 0.0107 µM | 71.8 µM | – |
| COC(=O)C1=C(CN2CC(F)(F)[C@H]3[C@@H]2CCN3C[C@@H](C)C(=O)O)NC(c2nccs2)=N[C@H]1c1ccc(F)cc1Cl (single isomer, unassigned) [Compound 133A, 3-((cis)-4-((6-(2-Chloro-4-fluorophenyl)-5-(methoxycarbonyl)-2-(thiazol-2-yl)-3,6-dihydropyrimidin-4-yl)methyl)-6,6-difluorohexahydropyrrolo[3,2-b]pyrrol-1(2H)-yl)-2-methylpropanoic acid] | < 0.0005 µM | 41.7 µM | – |
| COC(=O)C1=C(CN2CC(F)(F)[C@H]3[C@@H]2CCN3C[C@@H](C)C(=O)O)NC(c2nccs2)=N[C@H]1c1ccc(F)c(F)c1Cl (single isomer, unassigned) [Compound 134A, 3-((cis)-4-((6-(2-chloro-3,4-difluorophenyl)-5-(methoxycarbonyl)-2-(thiazol-2-yl)-3,6-dihydropyrimidin-4-yl)methyl)-6,6-difluorohexahydropyrrolo[3,2-b]pyrrol-1(2H)-yl)-2-methylpropanoic acid] | < 0.0005 µM | 26.9 µM | – |
| COC(=O)C1=C(CN2CC(F)(F)[C@H]3[C@@H]2CCN3C[C@H](C)C(=O)O)NC(c2nccs2)=N[C@H]1c1ccc(F)c(F)c1Cl (single isomer, unassigned) [Compound 134B, 3-((cis)-4-((6-(2-chloro-3,4-difluorophenyl)-5-(methoxycarbonyl)-2-(thiazol-2-yl)-3,6-dihydropyrimidin-4-yl)methyl)-6,6-difluorohexahydropyrrolo[3,2-b]pyrrol-1(2H)-yl)-2-methylpropanoic acid] | 0.0043 µM | 24.2 µM | – |
| CCOC(=O)C1=C(CN2CC(F)(F)[C@H]3[C@@H]2CCN3C[C@@H](C)C(=O)O)NC(c2nccs2)=N[C@H]1c1ccc(F)cc1Cl (single isomer, unassigned) [Compound 135A, 3-((cis)-4-((6-(2-chloro-4-fluorophenyl)-5-(ethoxycarbonyl)-2-(thiazol-2-yl)-3,6-dihydropyrimidin-4-yl)methyl)-6,6-difluorohexahydropyrrolo[3,2-b]pyrrol-1(2H)-yl)-2-methylpropanoic acid] | 0.0024 µM | 25.9 µM | – |
| CCOC(=O)C1=C(CN2CC(F)(F)[C@H]3[C@@H]2CCN3C[C@H](C)C(=O)O)NC(c2nccs2)=N[C@H]1c1ccc(F)cc1Cl (single isomer, unassigned) [Compound 135B, 3-((cis)-4-((6-(2-chloro-4-fluorophenyl)-5-(ethoxycarbonyl)-2-(thiazol-2-yl)-3,6-dihydropyrimidin-4-yl)methyl)-6,6-difluorohexahydropyrrolo[3,2-b]pyrrol-1(2H)-yl)-2-methylpropanoic acid] | 0.0099 µM | 36.3 µM | – |
| COC(=O)C1=C(CN2CC(F)(F)[C@H]3[C@@H]2CCN3CCC(C)(C)C(=O)O)NC(c2nccs2)=N[C@H]1c1cccc(F)c1C (single isomer, unassigned) [Compound 136, 4-((cis)-6,6-difluoro-4-((6-(3-fluoro-2-methylphenyl)-5-(methoxycarbonyl)-2-(thiazol-2-yl)-3,6-dihydropyrimidin-4-yl)methyl)hexahydropyrrolo[3,2-b]pyrrol-1(2H)-yl)-2,2-dimethylbutanoic acid] | 0.0021 µM | 34.4 µM | – |
| [2H]C([2H])(CC(C)(C)C(=O)O)N1CC[C@H]2[C@@H]1C(F)(F)CN2CC1=C(C(=O)OCC)[C@H](c2cccc(F)c2C)N=C(c2nccs2)N1 (single isomer, unassigned) [Compound 137] | 0.001 µM | 21.8 µM | – |
| CCOC(=O)C1=C(CN2CC(F)(F)[C@H]3[C@@H]2CCN3CCC(C)(C)C(=O)O)NC(c2nccs2)=N[C@H]1c1ccc(F)c(F)c1Cl (single isomer, unassigned) [Compound 138, 4-((cis)-4-((6-(2-chloro-3,4-difluorophenyl)-5-(ethoxycarbonyl)-2-(thiazol-2-yl)-3,6-dihydropyrimidin-4-yl)methyl)-6,6-difluorohexahydropyrrolo[3,2-b]pyrrol-1(2H)-yl)-2,2-dimethylbutanoic acid] | 0.0005 µM | 14.5 µM | – |
| CCOC(=O)C1=C(CN2CC(F)(F)[C@H]3[C@@H]2CCN3CCC(C)(C)C(=O)O)NC(c2nccs2)=N[C@@H]1c1ccc(F)c(F)c1C (single isomer, unassigned) [Compound 139, 4-((cis)-4-((6-(3,4-difluoro-2-methylphenyl)-5-(ethoxycarbonyl)-2-(thiazol-2-yl)-3,6-dihydropyrimidin-4-yl)methyl)-6,6-difluorohexahydropyrrolo[3,2-b]pyrrol-1(2H)-yl)-2,2-dimethylbutanoic acid] | 0.0006 µM | 16.1 µM | – |
| CCOC(=O)C1=C(CN2CC(F)(F)[C@H]3[C@@H]2CCN3CCC(C)(C)C(=O)O)NC(c2nccs2)=N[C@@H]1c1ccc(F)c(F)c1F (single isomer, unassigned) [Compound 140, (cis)-4-(4-((5-(ethoxycarbonyl)-2-(thiazol-2-yl)-6-(2,3,4-trifluorophenyl)-3,6-dihydropyrimidin-4-yl)methyl)-6,6-difluorohexahydropyrrolo[3,2-b]pyrrol-1(2H)-yl)-2,2-dimethylbutanoic acid] | 0.007 µM | 36.7 µM | – |
| CCOC(=O)C1=C(CN2CC(F)(F)[C@H]3[C@@H]2CCN3CCC(C)(C)C(=O)O)NC(c2nccs2)=N[C@H]1c1ccc(F)cc1Cl (single isomer, unassigned) [Compound 141] | 0.0035 µM | 26.7 µM | – |
| CCOC(=O)C1=C(CN2CC(F)(F)[C@H]3[C@@H]2CCN3CCC(C)(C)C(=O)O)NC(c2nccs2)=N[C@H]1c1cccc(F)c1F (single isomer, unassigned) [Compound 142] | 0.008 µM | > 25 µM | – |
| CCOC(=O)C1=C(CN2CC(F)(F)[C@H]3[C@@H]2CCN3C[C@H]2C[C@H](C(=O)O)C2)NC(c2nccs2)=N[C@H]1c1cccc(F)c1C (single isomer, unassigned) [Compound 143A] | 0.0011 µM | 19.2 µM | – |
| CCOC(=O)C1=C(CN2CC(F)(F)[C@H]3[C@@H]2CCN3C[C@H]2C[C@@H](C(=O)O)C2)NC(c2nccs2)=N[C@H]1c1cccc(F)c1C (single isomer, unassigned) [Compound 143B] | 0.0046 µM | 22.8 µM | – |
| CCOC(=O)C1=C(CN2CC(F)(F)[C@H]3[C@@H]2CCN3CCCC(C)(C)C(=O)O)NC(c2nccs2)=N[C@H]1c1cccc(F)c1C (single isomer, unassigned) [Compound 144] | 0.0198 µM | 20.2 µM | – |
| CCOC(=O)C1=C(CN2CC(F)(F)[C@H]3[C@@H]2CCN3CCC(C)(C)C(=O)O)NC(c2nccs2)=N[C@H]1c1cccc(F)c1Cl (single isomer, unassigned) [Compound 145, 4-((cis)-4-((6-(2-chloro-3-fluorophenyl)-5-(ethoxycarbonyl)-2-(thiazol-2-yl)-3,6-dihydropyrimidin-4-yl)methyl)-6,6-difluorohexahydropyrrolo[3,2-b]pyrrol-1(2H)-yl)-2,2-dimethylbutanoic acid] | 0.0009 µM | 26 µM | – |
